A word on the EC10: it is the concentration needed for an effect of 10%. One may read the EC25 as the concentration at which the effect reaches the 25% level.

These results are taken from PMC3422259, “Additive Mixture Effects of Estrogenic Chemicals in Human Cell-Based Assays Can Be Influenced by Inclusion of Chemicals with Differing Effect Profiles” (PLoS ONE, 2012).

“Also recorded” adds a separate entry of the source. Read-outs that look alike come from different tables or passages of the source.

Series [1] relates to T47D-KBluc cells. Put plainly: cells. To be noted: ERLUX. As to the method:
T47D-KBluc cells were obtained from the ATCC and the protocol established by the depositing authors was followed. Cells were routinely grown in RPMI media (with 10% foetal calf serum (FCS)). For seven days prior to experiments, cells were maintained in low estrogen conditions by the use of pre-assay media (RPMI, 10% charcoal-dextran stripped FCS, no antibiotics). For experiments, cells were seeded in white polystyrene 96 well plates at a density of 10,000 cells/well and allowed to attach for 24 hours before removal of media, and application of test chemicals. Test chemicals were dissolved in ethanol to give stock solutions of millimolar concentrations. Test and control solutions were obtained by dilution of ethanolic stocks in dosing media (phenol red-free RPMI, 5% charcoal-dextran stripped FCS, no antibiotics), and in all cases the final concentration of ethanol was 0.5%. The positive control was 1 nM estradiol. Positive and vehicle controls were run as eight replicate wells per plate, and compounds were tested in a dilution series comprising eight concentrations, each concentration tested in triplicate. As recommended by Wilson et al. two additional controls were also included on each plate: 1) vehicle control plus an antiestrogen, ICI 182,780 (1 µM), and 2) positive control plus ICI 182,780 (1 µM). […] A crude measure of toxicity was provided by comparing values for treatments that were not positive, with the value of the vehicle control. […] 24 hours after application of test and control solutions, a volume of Steady-Glo assay reagent (Promega) equal to the volume of culture media was added and plates were incubated for ten minutes, with shaking, to allow for cell lysis. Plates were then loaded into a plate reader (FLUOstar Optima, BMG Labtech) and incubated for a further ten minutes in the dark, followed by measurement of luminescence. To reduce variation, the temperature of the plate reader chamber was maintained at 27°C throughout.
(§1) Experiments were performed on different days meaning that results for different dilution series and different batches of the test chemicals were obtained on different days. Each single chemical was tested in three or more independent experiments. Use of normalisation meant that data from different experiments could be reliably combined and compared, as discussed previously. Data was expressed relative to the positive control, rather than as fold change from the vehicle response, for two reasons.
Effect concentrations (ECx) were defined relative to the effects of the estradiol concentration used as the positive control, for example EC50 is the concentration producing an effect of 50% of the positive control (estradiol, 1 nM (ERLUX) or 25 nM (ESCREEN)).
(§2) Results from regression analysis for each test chemicals were used to predict the CA effect for fixed-ratio mixtures designed on 1) equi-effective concentrations (balanced design), 2) possible human serum levels (non-balanced design). The original mathematical formulation of CA that defines for a mixture composed of n components with concentration c1 of the first component, c2 of the second component, and cn for the n-th component a combination effect X is [drawing 1] (1) Here, ECX1, ECX1 …, ECXn are the concentrations of the individual components that on their own produce the same effect X as the mixture, [15] The quotients cn/ECXn are called toxic units and scale all compounds in the mixture relative to their toxicity. They can be interpreted as the contribution of the compound to the total mixture concentration that is expected to produce the mixture effect X. According to equation 1, a mixture effect for a pre-defined effect level X is described only implicitly.

Series [2] deals with MCF-7 cells. Put plainly: Estrogenicity assay, mitogenic endpoint (ESCREEN). To be noted: for Signs of toxicity at the highest concentrations (in words): highest concentrations shown in Figure 2, may indicate toxicity; for Signs of estrogenicity: Active at concentration: ‘Active’ = positive signal clearly distinguishable from assay variability and noise; for Signs of estrogenicity (in words): chemical screened as potential modulator, tested alone. As to the method:
The ESCREEN assay was performed using cloned MCF-7 cells (described in [6], gifted from A. Soto, Boston) and the established ESCREEN method was followed using an adapted 96-well format. Cells were cultured in DMEM (5% FCS). For experiments, cells were seeded in clear polystyrene 96 well plates at a density of 2,500 cells/well and allowed to attach for 24 hours before washing with rinse media (phenol red-free DMEM, no supplements). […] Test chemicals were dissolved in ethanol to give stock solutions of millimolar concentrations. Test and control solutions were diluted prior to application in dosing media (phenol red free DMEM, 10% charcoal-dextran stripped FCS). The final concentration of ethanol was 0.5% in test and control wells. […] At all stages, media removal from cells was carried out gently and in a controlled fashion by use of an electronic multichannel pipette set to the lowest speed possible. Controls were run as eight replicate wells per plate and compounds were tested in a dilution series comprising eight concentrations, each concentration tested in two replicate wells per plate. The plate layout was designed to reduce variation due to evaporation and spreading of test chemicals, and had been previously optimised in the laboratory. After application of test solutions, plates were incubated for 120 hours before fixation with 10% trichloroacetic acid and sulforhodamine B (SRB) staining to measure protein and allow the indirect quantification of cell number.
as §1
as §2, with “implicitly. However, if the individual concentrations ci are expressed as relative fractions pi to the total mixture concentration ECxMix, then equation 1 can be re-arranged to [drawing 2] (2) which allows the direct calculation of the mixture concentration that is expected to produce the mixture effect X. To form a prediction curve, equation 2 is iterated through for various effect levels resulting in sets of effects and their associated predicted mixture concentration which are then plotted to produce a graph of the effect prediction.” for “implicitly.”
Both equations 1 and 2 require knowledge of the concentration of each mixture component that on its own produces the effect magnitude under consideration. For this reason, these equations cannot be used for predicting mixture effects that exceed the maximal effect of the least efficacious component, because those effect concentrations cannot be defined.

Series [3] relates to MCF-7 cells. In words: Modulation studies (ESCREEN only): effect of potential modulators on the response evoked by a reference mixture of estrogens (REFmix). Format: cell-based, human. To be noted: for Modulation of the REFmix effect (in words) / Concentration at which complete suppression (full inhibition) of REFmix effect was reached: ESCREEN; for Observed modulation: ESCREEN response to REFmix (Mixture 3d, ca. 50% effect), screening, one experiment; for Concentration at which complete suppression (full inhibition) of REFmix effect was reached: individual modulator screening. The source says:
Modulation studies comprised screening of individual modulators in low power experiments accompanied by parallel testing of an equimolar mixture of all modulators. This combination of low power screening and mixture testing provides the opportunity to assess a high number of chemicals (16 in this case) without a prohibitive amount of experimental effort. In this case the effects of 16 modulators could be evaluated using a total of 19 experimental plates (16 for screening and 3 for mixture testing).
To normalize for small changes in the absolute value of the positive control and the control response to the selected REFmix concentration, the response evoked by the REFmix control on each plate was defined as the 50% effect and all modulator study results are normalized to that value.
A mixture of modulators (MODmix) was also tested and was composed with a fixed ratio of equimolar concentrations, since the activity of each modulator was not known at the time of designing the mixture.
In these modulator studies, we examined 16 single chemicals (listed in Table 7) and an equimolar mixture of all 16 components for their ability to modulate the effects of a reference mixture (REFmix) which contained 14 food additives and contaminants (Table 1, Mixture 3d). […] Single chemicals were tested individually in single experiments (screening) and then a mixture composed using a fixed ratio of equal molarities was subjected to repeated testing.
Figure 5 Results of modulation studies. […] Experimental results are shown as grey circles representing each replicate (duplicate testing within the assay) and obtained in three independent (A) or one (B–Q) experiment (s). Experimental results were normalized by setting the value observed for the REFmix alone, the concentration of which was selected to evoke a […] of ca. 50%, to 0.5. The positive control values (black circles, eight replicates per experimental plate, 25 nM estradiol) are indicated adjacent to the y-axis. […] A black line indicates a LOESS spline fit to the data (A–Q) and a grey line indicates linear regression fit to the data for individual modulators (B–Q). A vertical dotted line is drawn at a mixture concentration of 1.6 µM (A) or at the concentration of each modulator present at that mixture concentration (0.1 uM, B–Q). Visual inspection of the individual modulator results (B–Q) was used to identify possible modulation, i.e. when the experimental data appears to deviate from the linear regression, or when the linear regression is not horizontal, and when the magnitude of the modulation is outside the variation expected in the assay.

Take `CCCCOC(=O)c1ccccc1C(=O)OCc1ccccc1` [BBP, Butyl benzyl phthalate]: the “Estrogenicity when tested alone (in words)” value in series [1] is “estrogenic”. For the same compound, the “Concentration at which estrogenic activity seen” value in series [1] (and above) was 0.1 to 1 µM. In addition, in series [1] (crude measure within the assay / dose-response analysis), the “Toxicity (in words)” value is “evidence for toxicity”. Further, in series [2] (ESCREEN), the “Signs of toxicity at the highest concentrations (in words)” value is “decline in response” and the “Signs of estrogenicity: Active at concentration” value (“Signs of estrogenicity: Active” for short) was “Active at 1 µM or higher”. Besides, the “Signs of toxicity: Toxic at concentration” value in series [2] (ESCREEN, reduction in signal at concentrations above those showing estrogenicity) is listed as “Toxic at 100 µM”. In series [3], the “Modulation of the REFmix effect (in words)” value (“Modulation … (in words)” for short) is recorded as “no indication of negative modulation” and the Observed modulation entry is on record as “None”.

Turning to `c1ccc2c(c1)cc1ccc3cccc4ccc2c1c34` [Benzo [a] pyrene], the EC10 in series [1] (concentration producing 10% effect relative to positive control 1 nM estradiol, 24 hours) was 862 nM. Also, the EC25 in series [1] (concentration producing 25% effect relative to positive control 1 nM estradiol, 24 hours) was 2060 nM. The “Concentration Response Function θ^∧ max” value in series [1] (estimated maximal model asymptote, effect relative to positive control (1 nM estradiol)) is 0.90. Also, the “Signs of estrogenicity (in words)” value in series [2] (ESCREEN) was “None”. In addition, the “Estrogenicity when tested alone (in words)” value in series [2] (ESCREEN, listed as BaP) is listed as “not active; also recorded: not when tested alone”. Further, in series [3], the “Modulation … (in words)” value is “clear negative modulation”, the Observed modulation entry is “Clear negative” and the “Concentration at which complete suppression (full inhibition) of REFmix effect was reached” value was at most 1 µM. Also, the “Concentration at which complete suppression (full inhibition) of REFmix effect was reached” value in series [3] (listed as BaP) was “around 1 µM”.

With `CCCCOC(=O)c1ccccc1C(=O)OCCCC` [DBP, Di butyl phthalate], in series [1], the “Estrogenicity when tested alone (in words)” value is “no estrogenicity”. Also, the “Signs of toxicity (in words)” value in series [2] was “None”. For the same compound, the “Signs of estrogenicity: Active” value in series [2] (ESCREEN) was “Active at 10 µM or higher”. For the same compound, in series [3], the “Modulation … (in words)” value is “possible negative modulation” and the Observed modulation result is listed as “Possible negative”.

`CCCCC(CC)COC(=O)c1ccccc1C(=O)OCC(CC)CCCC` (stereo not drawn) [DEHP, Di ethyl hexyl phthalate]: in series [1], the “Estrogenicity when tested alone (in words)” value is “no estrogenicity”. For the same compound, in series [2] (ESCREEN), the “Concentration at which estrogenicity occurred when tested alone” value is “greater than 1 µM”, the “Signs of toxicity at the highest concentrations (in words)” value is recorded as “decline in response” and the “Signs of estrogenicity: Active” value is recorded as “Active at 1 µM or higher”. Also, in series [2] (ESCREEN, before a full estrogenic response was reached), the “Concentration at which toxicity began” value worked out at 5 µM. Also, in series [3], the “Modulation … (in words)” value is on record as “no indication of negative modulation” and the Observed modulation entry was “None”.

As to `Clc1cc(Cl)c(-c2cc(Cl)c(Cl)cc2Cl)cc1Cl` [PCB #153, 2,2′,4,4′,5,5′-hexachloro biphenyl (PCB #153)], in series [2] (ESCREEN), the “Signs of toxicity (in words)” value is reported as “None” and the “Signs of estrogenicity (in words)” value is on record as “None”. In series [3], the “Modulation … (in words)” value was “no indication of negative modulation” and the Observed modulation result is recorded as “None”.

Regarding `Clc1cc(Cl)c(-c2cc(Cl)c(Cl)c(Cl)c2Cl)cc1Cl` [PCB #180, 2,2′,3,4,4′,5,5′-heptachloro biphenyl (PCB #180)], the “Signs of toxicity (in words)” value in series [2] is “None”. In series [2] (ESCREEN), the “Signs of estrogenicity (in words)” value is on record as “None”. In addition, in series [3], the “Modulation … (in words)” value is on record as “no indication of negative modulation” and the Observed modulation result is listed as “None”.

Take `O=[N+]([O-])[O-].O=[N+]([O-])[O-].[Pb+2]` [Pb(NO3)2, Lead nitrate]: in series [2] (ESCREEN), the “Signs of toxicity (in words)” value is on record as “None” and the “Signs of estrogenicity (in words)” value is given as “None”. Also, in series [3], the “Modulation … (in words)” value is given as “possible negative modulation” and the Observed modulation entry is reported as “Possible negative”.

Consider `Cn1c(N)nc2ncc(-c3ccccc3)cc21` [PhIP, 2-amino-1-methyl-6-phenylimidazo [4,5-b] pyridine], for which, in series [2] (ESCREEN), the “Signs of toxicity (in words)” value was “None” and the “Signs of estrogenicity (in words)” value was “None”. Moreover, in series [3], the “Modulation … (in words)” value was “possible negative modulation” and the Observed modulation entry is “Possible negative”.
